{"source": "ChEMBL document CHEMBL5518174", "about": "(Eur J Med Chem, 2024)", "key": {"[1]": {"test": "Downregulation of HDAC3 protein expression in human NCI-H1975 cells assessed as fold change at 0.1 uM incubated for 24 hrs by immunoblotting analysis (reference value: 1)", "type": "functional"}, "Histone deacetylase 9": {"biological_target": "Histone deacetylase 9 (Homo sapiens, UniProt Q9UKV0)", "sequence (Q9UKV0 whole entry)": "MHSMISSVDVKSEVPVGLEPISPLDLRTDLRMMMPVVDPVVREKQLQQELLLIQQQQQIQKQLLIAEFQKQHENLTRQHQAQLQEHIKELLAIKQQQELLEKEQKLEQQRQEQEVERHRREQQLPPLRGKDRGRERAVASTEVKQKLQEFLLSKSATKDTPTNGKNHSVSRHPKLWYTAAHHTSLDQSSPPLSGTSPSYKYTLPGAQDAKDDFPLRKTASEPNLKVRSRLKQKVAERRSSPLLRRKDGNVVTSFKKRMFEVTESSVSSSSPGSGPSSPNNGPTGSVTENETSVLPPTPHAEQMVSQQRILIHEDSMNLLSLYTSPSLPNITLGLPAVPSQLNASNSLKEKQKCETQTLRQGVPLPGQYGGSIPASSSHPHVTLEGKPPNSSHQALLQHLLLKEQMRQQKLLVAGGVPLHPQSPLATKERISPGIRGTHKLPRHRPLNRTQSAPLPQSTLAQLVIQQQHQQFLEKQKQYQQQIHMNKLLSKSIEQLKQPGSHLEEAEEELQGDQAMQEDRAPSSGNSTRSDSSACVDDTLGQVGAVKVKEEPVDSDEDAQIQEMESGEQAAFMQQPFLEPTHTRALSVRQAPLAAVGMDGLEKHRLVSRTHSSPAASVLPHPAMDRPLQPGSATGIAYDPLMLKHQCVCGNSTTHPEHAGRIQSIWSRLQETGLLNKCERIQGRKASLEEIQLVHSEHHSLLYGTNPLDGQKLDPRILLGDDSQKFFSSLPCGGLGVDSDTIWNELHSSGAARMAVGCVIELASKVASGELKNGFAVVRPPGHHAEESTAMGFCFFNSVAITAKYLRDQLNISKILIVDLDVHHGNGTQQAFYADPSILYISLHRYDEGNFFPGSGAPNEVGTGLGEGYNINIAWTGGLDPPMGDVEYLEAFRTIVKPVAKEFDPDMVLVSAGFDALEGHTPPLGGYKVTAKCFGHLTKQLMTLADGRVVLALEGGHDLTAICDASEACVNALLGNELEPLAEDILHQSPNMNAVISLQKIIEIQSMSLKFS", "test": "Inhibition of recombinant human HDAC9 using acetylated luminogenic substrate incubated for 10 mins by ultra-glo recombinant firefly luciferase based luminescence assay"}, "[2]": {"test": "Downregulation of HDAC1 protein expression in human MDA-MB-231 cells assessed as fold change at 0.05 uM incubated for 24 hrs by immunoblotting analysis (reference value: 1)", "type": "functional"}, "[3]": {"test": "Toxicity in athymic nude BALB/c mouse xenografted with human MDA-MB-231 cells assessed as effect on creatinine level in serum at 3 mg/kg, ip administered 5 times a week for 7 weeks", "type": "organism-based", "settings": "in vivo, 1176 h"}, "[4]": {"test": "Downregulation of HDAC7 protein expression in human NCI-H1975 cells assessed as fold change at 0.1 uM incubated for 24 hrs by immunoblotting analysis (reference value: 1)", "type": "functional"}, "[5]": {"test": "Downregulation of HDAC11 protein expression in human MDA-MB-231 cells assessed as fold change at 0.05 uM incubated for 24 hrs by immunoblotting analysis (reference value: 1)", "type": "functional"}, "[6]": {"test": "Downregulation of HDAC9 protein expression in human NCI-H1975 cells assessed as fold change at 0.05 uM incubated for 24 hrs by immunoblotting analysis (reference value: 1)", "type": "functional"}, "[7]": {"test": "Downregulation of HDAC8 protein expression in human NCI-H1975 cells assessed as fold change at 0.1 uM incubated for 24 hrs by immunoblotting analysis (reference value: 1)", "type": "functional"}, "[8]": {"test": "Effect on HDAC9 protein expression in human MDA-MB-231 cells assessed as fold change at 0.05 uM incubated for 24 hrs by immunoblotting analysis (reference value: 1)", "type": "functional"}, "[9]": {"test": "Downregulation of HDAC6 protein expression in human NCI-H1975 cells assessed as fold change at 0.1 uM incubated for 24 hrs by immunoblotting analysis (reference value: 1)", "type": "functional"}, "[10]": {"test": "Downregulation of HDAC2 protein expression in human NCI-H1975 cells assessed as fold change at 0.1 uM incubated for 24 hrs by immunoblotting analysis (reference value: 1)", "type": "functional"}, "NCI-H1975 [11]": {"test_system": "NCI-H1975", "test": "cells", "type": "functional, cell-based", "settings": "Homo sapiens, NCI-H1975, 48 h", "description": "Cytotoxicity against human NCI-H1975 cells assessed as inhibition of cell growth incubated for 48 hrs by Celltiter-glo assay"}, "NCI-H1975 [12]": {"test_system": "NCI-H1975", "test": "Antitumor activity against human NCI-H1975 cells xenografted in athymic nude BALB/c mouse assessed as average tumor size at 6 mg/kg, ip administered 5 times a week for 3 weeks and measured on day 22 (reference value: 776.4 +/- 118.1 mm3)", "type": "functional", "settings": "time 22 day"}, "Histone deacetylase": {"biological_target": "Histone deacetylase", "test": "Inhibition of HDAC in human HeLa cells nuclear extract", "type": "subcellular, Nucleus"}, "[13]": {"biological_target": "T1, Protein deacetylase HDAC6 (Homo sapiens, UniProt Q9UBN7)", "T1 sequence (Q9UBN7 whole entry)": "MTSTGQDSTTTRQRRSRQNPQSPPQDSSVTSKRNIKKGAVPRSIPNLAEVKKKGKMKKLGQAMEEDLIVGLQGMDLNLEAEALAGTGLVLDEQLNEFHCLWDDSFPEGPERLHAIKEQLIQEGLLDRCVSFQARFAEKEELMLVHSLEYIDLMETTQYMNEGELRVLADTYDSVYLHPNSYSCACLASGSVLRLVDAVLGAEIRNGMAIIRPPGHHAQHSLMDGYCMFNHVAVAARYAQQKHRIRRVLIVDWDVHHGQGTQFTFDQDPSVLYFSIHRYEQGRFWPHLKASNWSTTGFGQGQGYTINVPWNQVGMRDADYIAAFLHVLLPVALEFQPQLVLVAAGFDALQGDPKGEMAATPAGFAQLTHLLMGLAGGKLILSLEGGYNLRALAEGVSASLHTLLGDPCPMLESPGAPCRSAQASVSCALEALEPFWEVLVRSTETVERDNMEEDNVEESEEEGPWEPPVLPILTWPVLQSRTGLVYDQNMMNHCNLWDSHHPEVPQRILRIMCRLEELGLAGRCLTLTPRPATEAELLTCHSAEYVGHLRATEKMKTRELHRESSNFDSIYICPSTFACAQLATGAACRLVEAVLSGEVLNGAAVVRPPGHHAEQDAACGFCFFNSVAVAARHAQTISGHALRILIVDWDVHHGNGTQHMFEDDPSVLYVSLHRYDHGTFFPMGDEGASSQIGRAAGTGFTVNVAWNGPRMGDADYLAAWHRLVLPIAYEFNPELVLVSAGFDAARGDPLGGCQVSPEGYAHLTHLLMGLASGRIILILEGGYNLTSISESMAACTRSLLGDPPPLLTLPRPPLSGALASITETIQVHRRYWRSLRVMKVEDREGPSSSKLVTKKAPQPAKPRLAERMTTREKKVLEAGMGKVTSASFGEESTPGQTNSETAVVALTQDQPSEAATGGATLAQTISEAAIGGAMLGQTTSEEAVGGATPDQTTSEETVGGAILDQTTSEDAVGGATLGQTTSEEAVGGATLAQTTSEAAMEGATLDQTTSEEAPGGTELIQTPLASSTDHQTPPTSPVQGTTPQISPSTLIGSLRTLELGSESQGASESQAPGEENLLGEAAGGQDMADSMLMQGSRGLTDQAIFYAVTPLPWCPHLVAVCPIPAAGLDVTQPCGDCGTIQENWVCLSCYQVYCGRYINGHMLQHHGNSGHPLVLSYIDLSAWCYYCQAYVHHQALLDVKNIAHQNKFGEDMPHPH", "test": "Inhibition of recombinant human HDAC6 using acetylated luminogenic substrate incubated for 10 mins by ultra-glo recombinant firefly luciferase based luminescence assay"}, "[14]": {"test": "Downregulation of HDAC7 protein expression in human NCI-H1975 cells assessed as fold change at 0.05 uM incubated for 24 hrs by immunoblotting analysis (reference value: 1)", "type": "functional"}, "[15]": {"test": "Effect on HDAC1 protein expression in human NCI-H1975 cells assessed as fold change at 0.05 uM incubated for 24 hrs by immunoblotting analysis (reference value: 1)", "type": "functional"}, "[16]": {"test": "Downregulation of HDAC6 protein expression in human NCI-H1975 cells assessed as fold change at 0.05 uM incubated for 24 hrs by immunoblotting analysis (reference value: 1)", "type": "functional"}, "[17]": {"test": "Effect on HDAC10 protein expression in human NCI-H1975 cells assessed as fold change at 0.05 uM incubated for 24 hrs by immunoblotting analysis (reference value: 1)", "type": "functional"}, "[18]": {"test": "Downregulation of HDAC7 protein expression in human MDA-MB-231 cells assessed as fold change at 0.1 uM incubated for 24 hrs by immunoblotting analysis (reference value: 1)", "type": "functional"}, "[19]": {"test": "Effect on HDAC6 protein expression in human MDA-MB-231 cells assessed as fold change at 0.1 uM incubated for 24 hrs by immunoblotting analysis (reference value: 1)", "type": "functional"}, "[20]": {"test": "Toxicity in athymic nude BALB/c mouse xenografted with human NCI-H1975 cells assessed as reduction in body weight at 6 mg/kg, ip administered 5 times a week for 3 weeks and measured on day 22", "type": "organism-based", "settings": "in vivo, 528 h, time 22 day"}}, "data": [{"smiles": "CCOc1ccc(-c2nc(C(=O)NCc3ccc(C(=O)NO)cc3)c3[nH]c(=O)n(-c4cccnc4OC)c3n2)cn1", "values": [{"measurement": "fold change (FC)", "setting": "[1]", "result": 0.37}, {"measurement": "IC50", "setting": "Histone deacetylase 9", "result": 19.7, "unit": "nM"}, {"measurement": "fold change (FC)", "setting": "[2]", "result": 0.84}, {"measurement": "Activity", "setting": "[3]", "result": "Non-Toxic"}, {"measurement": "fold change (FC)", "setting": "[4]", "result": 0.79}, {"measurement": "fold change (FC)", "setting": "[5]", "result": 0.53}, {"measurement": "fold change (FC)", "setting": "[6]", "result": 0.5}, {"measurement": "fold change (FC)", "setting": "[7]", "result": 0.46}, {"measurement": "fold change (FC)", "setting": "[8]", "result": 1.08}, {"measurement": "fold change (FC)", "setting": "[9]", "result": 0.41}, {"measurement": "fold change (FC)", "setting": "[10]", "result": 0.69}, {"measurement": "IC50", "setting": "NCI-H1975 [11]", "result": 1200, "unit": "nM"}, {"measurement": "Activity", "setting": "NCI-H1975 [12]", "result": 331.8, "unit": "mm3"}, {"measurement": "IC50", "setting": "Histone deacetylase", "result": 40, "unit": "nM"}, {"measurement": "IC50", "setting": "[13]", "result": 10.8, "unit": "nM"}, {"measurement": "fold change (FC)", "setting": "[14]", "result": 0.94}, {"measurement": "fold change (FC)", "setting": "[15]", "result": 1.44}, {"measurement": "fold change (FC)", "setting": "[16]", "result": 0.6}, {"measurement": "fold change (FC)", "setting": "[17]", "result": 1.09}, {"measurement": "fold change (FC)", "setting": "[18]", "result": 0.58}, {"measurement": "fold change (FC)", "setting": "[19]", "result": 1.17}, {"measurement": "Activity", "setting": "[20]", "result": "Non-Toxic"}]}]}
